Assay results taken from patent US11667602B2, “Compounds and their use” (AstraZeneca AB, priority 2020, dated 2023).
Like-named read-outs stand apart in the source and are kept apart here.

Target: T1, human RXFP1 (Homo sapiens, UniProt Q9HBX9)
T1 sequence (Q9HBX9 1-757): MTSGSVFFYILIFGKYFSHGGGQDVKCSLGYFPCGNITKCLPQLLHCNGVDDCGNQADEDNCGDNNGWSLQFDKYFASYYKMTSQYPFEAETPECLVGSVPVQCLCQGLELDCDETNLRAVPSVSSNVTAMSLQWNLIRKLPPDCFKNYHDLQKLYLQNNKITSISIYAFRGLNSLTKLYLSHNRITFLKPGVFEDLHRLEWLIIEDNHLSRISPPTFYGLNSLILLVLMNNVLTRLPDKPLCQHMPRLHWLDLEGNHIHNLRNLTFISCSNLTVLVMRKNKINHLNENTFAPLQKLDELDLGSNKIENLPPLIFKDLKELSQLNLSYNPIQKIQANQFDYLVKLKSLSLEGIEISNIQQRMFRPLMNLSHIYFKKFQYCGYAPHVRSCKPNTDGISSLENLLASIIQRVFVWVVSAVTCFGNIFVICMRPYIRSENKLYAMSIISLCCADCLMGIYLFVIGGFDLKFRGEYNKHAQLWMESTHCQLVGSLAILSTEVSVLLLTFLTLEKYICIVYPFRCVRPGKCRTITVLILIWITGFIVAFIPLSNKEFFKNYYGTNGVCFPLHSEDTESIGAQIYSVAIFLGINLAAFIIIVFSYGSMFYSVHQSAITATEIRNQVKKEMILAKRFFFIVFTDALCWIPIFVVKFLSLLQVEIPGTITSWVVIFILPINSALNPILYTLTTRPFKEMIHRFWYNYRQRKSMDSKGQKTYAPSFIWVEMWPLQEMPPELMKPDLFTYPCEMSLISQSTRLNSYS
Assay: RXFP1 Hu cAMP (Test A)
Assay type: cell-based
Design: expressed in transfected cells; host or cells: Jump-In T-REx CHO-K1 cells (ThermoFisher), induced with 10 ng/ml doxycycline for 24 h
Summary of the method: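 Competitive HTRF cAMP readout (2 h, room temperature) in CHO-K1 cells stably expressing human RXFP1, induced with 10 ng/ml doxycycline for 24 h; IBMX 0.5 mM final.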

[1] = RXFP1 Hu cAMP, read-out: Test A EC50

Test A Sinf (RXFP1 Hu cAMP)	EC50 [1]	Molecule	EC50 (Test A EC50, RXFP1 Hu cAMP)
104%	29 nM	COc1cc(F)c(OC2CCC(O)(C(=O)O)CC2)cc1C(=O)NC1C2CCC(C2)C1C(=O)Nc1cccc(S(=O)(=O)C(F)(F)F)c1 [Example 582, (1R,4r)-4-(2-Fluoro-4-methoxy-5-(((1R*,2R*,3S*,4S*)-3-((3-((trifluoromethyl)sulfonyl)phenyl)carbamoyl)bicyclo[2.2.1]heptan-2-yl)carbamoyl)phenoxy)-1-hydroxycyclohexane-1-carboxylic acid]	
75%		COc1cc(F)c(-c2ccccc2CC(=O)O)cc1C(=O)N[C@H]1[C@@H](C(=O)Nc2cccc(S(=O)(=O)C(F)(F)F)c2)[C@@H]2C=C[C@H]1C2 (racemic) [Example 235]	
94%	220 nM	COc1cc(C#N)c(O[C@H]2CC[C@@](C)(C(=O)O)CC2)cc1C(=O)N[C@@H]1[C@H]2CC[C@H](C2)[C@@H]1C(=O)NCc1cccc(C)c1 [Example 115]	
126%	190 nM	COc1cc(C#N)c(O[C@H]2CC[C@@](C)(C(=O)O)CC2)cc1C(=O)Nc1cc(C)ccc1C(=O)NC12CC(C1)C2 [Example 173]	
	> 40000 nM	COc1cc(F)c(O[C@H]2CC[C@@](C)(C(=O)O)CC2)cc1C(=O)NC1COCC1C(=O)NCC(C)(C)C (single isomer, unassigned) [Example 566, (1R,4s)-4-(2-Fluoro-4-methoxy-5-(((3S*,4R*)-4-(neopentylcarbamoyl)tetrahydrofuran-3-yl)carbamoyl)phenoxy)-1-methylcyclohexane-1-carboxylic acid]	
91%	260 nM	COc1cc(F)c(O[C@H]2CC[C@@](C)(C(=O)O)CC2)cc1C(=O)N[C@@H]1[C@H]2CC[C@H](C2)[C@@H]1C(=O)NC1CCCC1 [Example 599]	
84%	350 nM	COc1cc(F)c(OC2CCC(O)(C(=O)O)CC2)cc1C(=O)N[C@@H]1[C@@H]2CC[C@@H](C2)[C@@H]1C(=O)Nc1cccc(S(=O)(=O)C(F)(F)F)c1 (relative stereo) [Example 583, (1R,4r)-4-(2-Fluoro-4-methoxy-5-(((1R*,2R*,3S*,4S*)-3-((3-((trifluoromethyl)sulfonyl)phenyl)carbamoyl)bicyclo[2.2.1]heptan-2-yl)carbamoyl)phenoxy)-1-hydroxycyclohexane-1-carboxylic acid]	
95%		COC(=O)[C@]1(C(=O)O)CC[C@@H](Oc2cc(C(=O)N[C@@H]3[C@H]4CC[C@H](C4)[C@@H]3C(=O)NCC3(C)CCC3)c(OC(C)C)cc2F)CC1 [Example 485, (1R,4r)-4-(2-Fluoro-4-isopropoxy-5-(((1S,2R,3S,4R)-3-(((1-methylcyclobutyl)methyl)carbamoyl)bicyclo[2.2.1]heptan-2-yl)carbamoyl)phenoxy)-1-(methoxycarbonyl)cyclohexane-1-carboxylic acid]	
	> 40000 nM	COc1cc(F)c(O[C@H]2CC[C@@H](C(=O)OC)CC2)cc1C(=O)N[C@@H]1C[C@H](O)C[C@@H]1C(=O)Nc1cccc(S(=O)(=O)C(F)(F)F)c1 (racemic) [Example 496]	
	> 40000 nM	COc1cc(F)c(O[C@H]2C[C@@H]3[C@H](C2)[C@H]3C(=O)O)cc1C(=O)N[C@@H]1[C@H]2CC[C@H](C2)[C@@H]1C(=O)NCC1(C)CCC1 (racemic) [Example 426, (1RS,3SR,5SR,6RS)-3-(2-Fluoro-4-methoxy-5-(((1S,2R,3S,4R)-3-(((1-methylcyclobutyl)methyl)carbamoyl)bicyclo[2.2.1]heptan-2-yl)carbamoyl)phenoxy)bicyclo[3.1.0]hexane-6-carboxylic acid]	
125%	1.1 nM	COc1cc(F)c(O[C@H]2CC[C@@](C)(C(=O)O)CC2)cc1C(=O)N[C@@H]1[C@@H]2CC[C@@H](C2)[C@@H]1C(=O)Nc1ccc(F)c(S(F)(F)(F)(F)F)c1 (racemic) [Example 371]	
78%	3900 nM	COc1cc(F)c(-c2cccc(C(=O)O)c2)cc1C(=O)N[C@@H]1CCC[C@@H]1C(=O)Nc1cccc(S(=O)(=O)C(F)(F)F)c1 (racemic) [Example 300]	
95%	91 nM	COc1cc(F)c(O[C@H]2CC[C@@](C)(C(=O)O)CC2)cc1C(=O)N[C@H]1[C@@H](C(=O)NCC2(C)CCC2)[C@H]2C=C[C@@H]1CC2 (racemic) [Example 471, (1R,4s)-4-(2-Fluoro-4-methoxy-5-(((1RS,2SR,3RS,4SR)-3-(((1-methylcyclobutyl)methyl)carbamoyl)bicyclo[2.2.2]oct-5-en-2-yl)carbamoyl)phenoxy)-1-methylcyclohexane-1-carboxylic acid]	
100%	98 nM	COC[C@]1(C(=O)O)CC[C@H](Oc2cc(C(=O)N[C@@H]3[C@@H]4CC[C@@H](C4)[C@@H]3C(=O)Nc3cccc(S(=O)(=O)C(F)(F)F)c3)c(OC)cc2F)CC1 [Example 480]	
95%	11 nM	COc1cc(F)c(O[C@H]2CC[C@@](C)(C(=O)O)CC2)cc1C(=O)N[C@@H]1CCCCC[C@@H]1C(=O)Nc1cccc(S(=O)(=O)C(F)(F)F)c1 (racemic) [Example 354]	
108%		COc1cc(F)c(-c2ccc(C(=O)O)c(F)c2)cc1C(=O)N[C@H]1[C@@H](C(=O)Nc2cccc(S(=O)(=O)C(F)(F)F)c2)[C@@H]2C=C[C@H]1C2 (racemic) [Example 232]	
	> 40000 nM	COc1cc(F)c(OCC23CCC(C(=O)O)(CC2)CC3)cc1C(=O)N[C@@H]1[C@H]2CC[C@H](C2)[C@@H]1C(=O)Nc1cccc(S(=O)(=O)C(F)(F)F)c1 [Example 441]	
102%	420 nM	COc1cc(F)c(-c2ccc(C(=O)O)cc2F)cc1C(=O)N[C@H]1[C@@H](C(=O)Nc2cccc(S(=O)(=O)C(F)(F)F)c2)[C@@H]2C=C[C@H]1C2 (racemic) [Example 227]	
	> 2500 nM	COCc1cc(F)c(O[C@H]2CC[C@@](C)(C(=O)O)CC2)cc1C(=O)N[C@@H]1[C@H]2CC[C@H](C2)[C@@H]1C(=O)NCC1(C)CCC1 [Example 380]	
114%	130 nM	COc1cc(F)c(-c2ccc(O)c(C(=O)O)c2)cc1C(=O)N[C@H]1[C@@H]2CC[C@@H](C2)[C@H]1C(=O)Nc1cccc(S(=O)(=O)C(F)(F)F)c1 (single isomer, unassigned) [Example 556]	
108%	1600 nM	COc1cc(F)c(OCc2cccc(C(=O)O)c2)cc1C(=O)N[C@H]1[C@@H](C(=O)Nc2cccc(S(=O)(=O)C(F)(F)F)c2)[C@@H]2C=C[C@H]1C2 (racemic) [Example 449]	
	> 40000 nM	COc1cc(F)c(O[C@H]2CC[C@@](C)(C(=O)O)CC2)cc1C(=O)N[C@@H]1CCN(C(C)=O)C[C@@H]1C(=O)Nc1cccc(S(=O)(=O)C(F)(F)F)c1 (racemic) [Example 487, (1R,4s)-4-(5-(((3RS,4SR)-1-Acetyl-3-((3-((trifluoromethyl)sulfonyl)phenyl)carbamoyl)piperidin-4-yl)carbamoyl)-2-fluoro-4-methoxyphenoxy)-1-methylcyclohexane-1-carboxylic acid]	
116%		COc1cc(F)c(O[C@H]2CC[C@@](C)(C(=O)O)CC2)cc1C(=O)N[C@@H]1[C@H]2CC[C@H](C2)[C@@H]1C(=O)N[C@@H](C)C(F)(F)F [Example 601]	
102%	29 nM	COc1cc(C#N)c(O[C@H]2CC[C@@](C)(C(=O)O)CC2)cc1C(=O)N[C@@H]1[C@H]2CC[C@H](C2)[C@@H]1C(=O)NCc1cc(C)ccc1C [Example 136]	
68%		COc1cc(F)c(-c2ccc(O)c(C(=O)O)c2)cc1C(=O)N[C@H]1[C@@H]2CC[C@@H](C2)[C@H]1C(=O)Nc1cccc(S(=O)(=O)C(F)(F)F)c1 (single isomer, unassigned) [Example 557]	

Molecule	Test A Sinf (RXFP1 Hu cAMP)	EC50 [1]	EC50 (Test A EC50, RXFP1 Hu cAMP)
(1R,4s)-4-(2-Cyano-4-methoxy-5-(((1R*,2S*,3R*,4S*)-3-(((1-methylcyclobutyl)methyl)carbamoyl)bicyclo[2.2.2]oct-5-en-2-yl)carbamoyl)phenoxy)-1-methylcyclohexane-1-carboxylic acid [Example 541]	100%		
COc1cc(F)c(O[C@H]2CC[C@@](C)(C(=O)O)CC2)cc1C(=O)N[C@@H]1[C@@H]2CC[C@@H](C2)[C@@H]1C(=O)NCC(C)(C)C [Example 370]	102%		24 nM
(1R,4s)-4-(2-Fluoro-4-methoxy-5-(((1R*,2S*,3R*,4S*)-3-(((1-methylcyclobutyl)methyl)carbamoyl)bicyclo[2.2.2]oct-5-en-2-yl)carbamoyl)phenoxy)-1-methylcyclohexane-1-carboxylic acid [Example 545]	91%		
